Assay results from BindingDB's records for doi:10.1021/acs.jmedchem.8b00435 (Shanghaitech University, 2018).

Experiment: Agonist activity at adenosine A3 receptor (unknown origin) expressed in serum starved CHO cells assessed as increase in cell survival after 24 hrs by propidium iodide staining-based assay

| SMILES | EC50 [nM] |
| --- | --- |
| CNC(=O)[C@@]12C[C@@H]1[C@@H](n1cnc3c(NCc4cccc(Cl)c4)nc(C#Cc4ccc5ccc6cccc7ccc4c5c67)nc31)[C@H](O)[C@@H]2O | 13 |
| CNC(=O)[C@@]12C[C@@H]1[C@@H](n1cnc3c(NCc4cccc(Cl)c4)nc(C#Cc4ccccc4)nc31)[C@H](O)[C@@H]2O | 0.2 |
| CNC(=O)[C@@]12C[C@@H]1[C@@H](n1cnc3c(NCc4cccc(Cl)c4)nc(C#Cc4ccc(-c5ccccc5)cc4)nc31)[C@H](O)[C@@H]2O | 0.251 |
| CNC(=O)[C@@]12C[C@@H]1[C@@H](n1cnc3c(NCc4cccc(Cl)c4)nc(C#Cc4cc5cccc6ccc7cccc4c7c65)nc31)[C@H](O)[C@@H]2O | 20 |
